Legend:
Format in all cases: in vivo
[1] = test system: Concord grape vines; assay: Example 1: bud break and shoot growth of potted Concord grape vines in greenhouse; conditions: for Broken Buds/Plant / FW/Broken Bud: 51 days post-treatment; for FW/Plant: combined shoot fresh weight at 51 DAT; for 50% BB: days from application to 50% of the plants showing at least one bud broken; for 0-50% BB: days from bud break on the first plant to 50% of the plants with bud break, synchrony
Text: An aqueous 50% hydrogen cyanamide solution (Sigma-Aldrich, St. Louis, Mo. USA) was used as the source of hydrogen cyanamide (“HC”). The commercial product, Dormex® contains 50% hydrogen cyanamide (w/v) in an aqueous base.
Erger® was used as the source of 15-0-0 fertilizer. Erger® contains 15% total nitrogen as 3.1% ammoniacal nitrogen, 5.8% nitrate nitrogen, 6.1% urea nitrogen and 3.3% calcium derived from a mixture of ammonium nitrate, calcium nitrate and urea. Erger® is always used in combination with either 20% (w/v) Ca(NO3)2 or Activ Erger®. In the following examples, 15-0-0 fertilizer was applied at a rate of 208,340 ppm calcium nitrate, 15,060 ppm nitrogen nitrate and 15,660 ppm urea or 239,060 ppm total.
CAN-17 was used as the 17-0-0 fertilizer. CAN-17 contains 17% total nitrogen as 4.6% ammonium nitrogen and 11.6% nitrate nitrogen and 1.3% urea nitrogen and 8.8% calcium derived from ammonium nitrate and calcium nitrate. CAN-17 is available from J. R. Simplot Company (Boise, Id., USA). In the following examples, 17-0-0 fertilizer was applied at a rate of 118,200 ppm calcium nitrate and 78,900 ppm nitrogen nitrate or 197,100 ppm total. See, Table 1 below, for ratios of forchlorfenuron (“CPPU”) to fertilizer that were used in the following examples.
To assess the ability of mixtures of the invention to promote and synchronize bud break these mixtures were applied to Concord grape vines and examined for bud break (initiation of growth) and subsequent shoot development. Specifically, dormant bare-rooted Concord grape vines were planted in pots containing Pro-Mix® BX potting soil (Pro-Mix is a registered trademark of and available from Premier Horticulture Ltd.) and pruned to five nodes on a single shoot of one-year-old wood. Nodes are regions on the shoot where leaves arise from the shoot and buds are present at the axis of the shoot:leaf interface. The bud found at the shoot:leaf interface develops into the vines new shoot growth. Aqueous solutions of forchlorfenuron, HC, 15-0-0 fertilizer, 17-0-0 fertilizer, and mixtures thereof were each applied individually or sequentially or co-applied to the first-year wood of separate Concord grape vines. Plants were grown in a heated greenhouse for 49 days and evaluated for percent of vines showing bud break, periodically between seven days after application and the conclusion of the experiment. Percent bud break is determined by the number of plants that have at least one bud broken divided by the total number of plants per treatment times 100. At 51 days after treatment (“DAT”), the plants were sacrificed and measured for total number of flower clusters, total new shoot length, longest new shoot, combined new shoot fresh weight. New shoot growth is the growth arising from the dormant buds not including the woody growth that was planted and gave rise to the new growth.
(§1) To determine if the mixtures provided unexpected results, the observed combined efficacy (“OCE”) was divided by the expected combined efficacy (“ECE”) wherein the expected ECE is calculated by the Abbott method: ECE=A+B−(AB/100), • wherein ECE is the expected combined efficacy and in which A and B are the speed of bud break relative to control, the number of buds broken per plant relative to control, shoot length relative to control or shoot weight relative to control given by the single active ingredients. If the ratio between the OCE of the mixture and the ECE of the mixture is greater than 1, then greater than expected interactions are present in the mixture. (Gisi, Synergistic Interaction of Fungicides in Mixtures, The American Phytopathological Society, 86:11, 1273-1279,1996). Results

[2] = test system: Flame seedless grape vines; assay: Example 3: bud break on spurs of field-grown Flame seedless grape vines; conditions: 41 days post application
Description: as §1
To assess the ability of mixtures of the invention to promote and synchronize bud break, these mixtures were applied to field-grown Flame seedless grape vines in Thermal, Calif., and examined for bud break (initiation of growth) and subsequent shoot development. Forchlorfenuron, Dormex (50% HC), 15-0-0 (Erger®) and 17-0-0 fertilizers (CAN17), and mixtures thereof were each applied individually or sequentially (co-applied) to the separate spurs of Flame seedless grape vines. Plants were evaluated for bud break at 41 days after treatment. Results of these evaluations can be seen below in Tables 11 and 12.

[3] = test system: Concord grape vines; assay: Example 2: Concord grape vines greenhouse, forchlorfenuron and 17-0-0 fertilizer (CAN17) study; conditions: for Fresh Weight at Harvest: combined shoot fresh weight, 52 days after planting; for 50% BB: days after treatment to 50% bud break; for Average Number of Broken Nodes Per Plant at Harvest: harvest 52 days after planting
Text: To assess the ability of mixtures of the invention to promote and synchronize bud break these mixtures were applied to Concord grape vines and examined for bud break (initiation of growth) and subsequent shoot development. Specifically, dormant bare-rooted Concord grape vines were planted in pots containing Pro-Mix® BX potting soil (Pro-Mix is a registered trademark of and available from Premier Horticulture Ltd.) and pruned to five nodes on a single shoot of one-year-old wood. Nodes are regions on the shoot where leaves arise from the shoot and buds are present at the axis of the shoot:leaf interface. The bud found at the shoot:leaf interface develops into the vines new shoot growth. Aqueous solutions of forchlorfenuron, HC, 15-0-0 fertilizer, 17-0-0 fertilizer, and mixtures thereof were each applied individually or sequentially or co-applied to the first-year wood of separate Concord grape vines. […] Percent bud break is determined by the number of plants that have at least one bud broken divided by the total number of plants per treatment times 100. […] New shoot growth is the growth arising from the dormant buds not including the woody growth that was planted and gave rise to the new growth.
as §1
The experiment from Example 1 was repeated with varying quantities of forchlorfenuron and fertilizers in a greenhouse experiment.

## O=C(Nc1ccccc1)Nc1ccnc(Cl)c1 [CPPU, N-(2-Chloro-4-pyridyl)-N′-phenylurea]
[1]; 31 days after treatment, plants with at least one bud showing a green shoot emerging, listed as CPPU 100 ppm
  Percentage of Concord Grape Vines with Dormancy Relieved: 25%
[1]; 31 days after treatment, plants with at least one bud showing a green shoot emerging, listed as CPPU 300 ppm
  Percentage of Concord Grape Vines with Dormancy Relieved: 12.5%
[1]; 31 days after treatment, plants with at least one bud showing a green shoot emerging, listed as CPPU 1000 ppm
  Percentage of Concord Grape Vines with Dormancy Relieved: 37.5%
[1]; 34 days after treatment, listed as CPPU 100 ppm
  Percentage of Concord Grape Vines with Dormancy Relieved: 50%
[1]; 34 days after treatment, listed as CPPU 300 ppm
  Percentage of Concord Grape Vines with Dormancy Relieved: 37.5%
[1]; 34 days after treatment, listed as CPPU 1000 ppm
  Percentage of Concord Grape Vines with Dormancy Relieved: 62.5%
[1]; 36 days after treatment, listed as CPPU 100 ppm
  Percentage of Concord Grape Vines with Dormancy Relieved: 50%
[1]; 36 days after treatment, listed as CPPU 300 ppm
  Percentage of Concord Grape Vines with Dormancy Relieved: 50%
[1]; 36 days after treatment, listed as CPPU 1000 ppm
  Percentage of Concord Grape Vines with Dormancy Relieved: 62.5%
[1]; 38 days after treatment, listed as CPPU 100 ppm
  Percentage of Concord Grape Vines with Dormancy Relieved: 50%
[1]; 38 days after treatment, listed as CPPU 300 ppm
  Percentage of Concord Grape Vines with Dormancy Relieved: 50%
[1]; 38 days after treatment, listed as CPPU 1000 ppm
  Percentage of Concord Grape Vines with Dormancy Relieved: 75%
[1]; 43 days after treatment, listed as CPPU 100 ppm
  Percentage of Concord Grape Vines with Dormancy Relieved: 75%
[1]; 43 days after treatment, listed as CPPU 300 ppm
  Percentage of Concord Grape Vines with Dormancy Relieved: 62.5%
[1]; 43 days after treatment, listed as CPPU 1000 ppm
  Percentage of Concord Grape Vines with Dormancy Relieved: 87.5%
[1]; 45 days after treatment, listed as CPPU 100 ppm
  Percentage of Concord Grape Vines with Dormancy Relieved: 75%
[1]; 45 days after treatment, listed as CPPU 300 ppm
  Percentage of Concord Grape Vines with Dormancy Relieved: 62.5%
[1]; 45 days after treatment, listed as CPPU 1000 ppm
  Percentage of Concord Grape Vines with Dormancy Relieved: 87.5%
[1]; 51 days after treatment, listed as CPPU 100 ppm
  Percentage of Concord Grape Vines with Dormancy Relieved: 87.5%
[1]; 51 days after treatment, listed as CPPU 300 ppm
  Percentage of Concord Grape Vines with Dormancy Relieved: 62.5%
[1]; 51 days after treatment, listed as CPPU 1000 ppm
  Percentage of Concord Grape Vines with Dormancy Relieved: 87.5%
[1]; listed as CPPU 100 ppm
  Broken Buds/Plant: 1.71
  FW/Broken Bud: 4.73 grams
  FW/Plant: 8.11 grams
  50% BB: 34 days
  0-50% BB: 10 days
[1]; listed as CPPU 300 ppm
  Broken Buds/Plant: 2.00
  FW/Broken Bud: 4.69 grams
  FW/Plant: 9.39 grams
  50% BB: 36 days
  0-50% BB: 7 days
[1]; listed as CPPU 1000 ppm
  Broken Buds/Plant: 1.29
  FW/Broken Bud: 9.51 grams
  FW/Plant: 12.22 grams
  50% BB: 34 days
  0-50% BB: 14 days
[2]; listed as CPPU 300 ppm
  Broken Buds per Spur (OCE): 0.00
  Percentage of Spurs With At Least One Bud Broken (OCE): 0%
[2]; listed as CPPU 600 ppm
  Broken Buds per Spur (OCE): 0.03
  Percentage of Spurs With At Least One Bud Broken (OCE): 3%
[2]; listed as CPPU 1000 ppm
  Broken Buds per Spur (OCE): 0.00
  Percentage of Spurs With At Least One Bud Broken (OCE): 0%
[3]; listed as CPPU 300 ppm
  Fresh Weight at Harvest: 14.30 grams
  50% BB: 31 days
  Average Number of Broken Nodes Per Plant at Harvest: 1.86
[3]; listed as CPPU 600 ppm
  Fresh Weight at Harvest: 15.10 grams
  50% BB: 35 days
  Average Number of Broken Nodes Per Plant at Harvest: 2.00
[3]; listed as CPPU 1000 ppm
  Fresh Weight at Harvest: 11.33 grams
  50% BB: 38 days
  Average Number of Broken Nodes Per Plant at Harvest: 1.80

Source: US11317626B2, “Forchlorfenuron mixtures and uses thereof” (Valent BioSciences LLC, priority 2018, dated 2022)
